# Data reported in ChEMBL document CHEMBL1122816, “Synthesis and activity of 5-(aminomethylene)-1,3-cyclohexanediones: enolic analogues of gamma-aminobutyric acid” (J Med Chem, 1985).
# What was measured:
# Rattus norvegicus = species on record: Rattus norvegicus; assay: The inhibitory concentration of compound against sodium dependent [3H]GABA synaptosomal uptake in rats; format: functional
# GABA B receptor = GABA B receptor (Rattus norvegicus, UniProt O88871+Q9Z0U4); assay: Displacement of [3H]baclofen from Gamma-aminobutyric acid type B receptor in rat brain membranes; format: cell membranes
# GABA B receptor, sequence (Q9Z0U4 whole entry): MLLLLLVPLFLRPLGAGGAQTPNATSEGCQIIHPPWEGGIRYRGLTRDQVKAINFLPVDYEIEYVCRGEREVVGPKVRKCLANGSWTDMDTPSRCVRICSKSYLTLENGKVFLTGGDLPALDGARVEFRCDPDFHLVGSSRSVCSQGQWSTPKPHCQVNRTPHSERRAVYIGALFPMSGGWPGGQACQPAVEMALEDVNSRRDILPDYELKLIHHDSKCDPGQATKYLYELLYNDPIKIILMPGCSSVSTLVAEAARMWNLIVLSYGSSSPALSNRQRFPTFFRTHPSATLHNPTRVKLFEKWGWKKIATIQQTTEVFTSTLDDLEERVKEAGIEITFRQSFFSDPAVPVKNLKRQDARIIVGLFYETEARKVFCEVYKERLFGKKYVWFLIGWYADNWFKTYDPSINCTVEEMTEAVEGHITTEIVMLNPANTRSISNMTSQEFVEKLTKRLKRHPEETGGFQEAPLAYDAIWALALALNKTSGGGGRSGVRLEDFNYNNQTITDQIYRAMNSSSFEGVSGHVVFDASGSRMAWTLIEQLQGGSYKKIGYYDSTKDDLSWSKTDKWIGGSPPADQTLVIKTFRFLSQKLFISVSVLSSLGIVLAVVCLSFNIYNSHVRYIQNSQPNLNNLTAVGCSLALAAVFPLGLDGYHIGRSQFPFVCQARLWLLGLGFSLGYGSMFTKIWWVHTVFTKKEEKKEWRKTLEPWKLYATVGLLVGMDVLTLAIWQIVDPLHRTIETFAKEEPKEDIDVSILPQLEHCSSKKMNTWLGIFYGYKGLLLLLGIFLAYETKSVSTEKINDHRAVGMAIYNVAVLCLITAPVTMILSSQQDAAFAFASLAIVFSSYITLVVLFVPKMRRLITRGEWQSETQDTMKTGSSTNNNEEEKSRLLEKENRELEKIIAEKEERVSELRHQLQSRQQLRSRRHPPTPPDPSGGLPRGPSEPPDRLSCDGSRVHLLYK
# GABA B receptor, sequence (O88871 whole entry): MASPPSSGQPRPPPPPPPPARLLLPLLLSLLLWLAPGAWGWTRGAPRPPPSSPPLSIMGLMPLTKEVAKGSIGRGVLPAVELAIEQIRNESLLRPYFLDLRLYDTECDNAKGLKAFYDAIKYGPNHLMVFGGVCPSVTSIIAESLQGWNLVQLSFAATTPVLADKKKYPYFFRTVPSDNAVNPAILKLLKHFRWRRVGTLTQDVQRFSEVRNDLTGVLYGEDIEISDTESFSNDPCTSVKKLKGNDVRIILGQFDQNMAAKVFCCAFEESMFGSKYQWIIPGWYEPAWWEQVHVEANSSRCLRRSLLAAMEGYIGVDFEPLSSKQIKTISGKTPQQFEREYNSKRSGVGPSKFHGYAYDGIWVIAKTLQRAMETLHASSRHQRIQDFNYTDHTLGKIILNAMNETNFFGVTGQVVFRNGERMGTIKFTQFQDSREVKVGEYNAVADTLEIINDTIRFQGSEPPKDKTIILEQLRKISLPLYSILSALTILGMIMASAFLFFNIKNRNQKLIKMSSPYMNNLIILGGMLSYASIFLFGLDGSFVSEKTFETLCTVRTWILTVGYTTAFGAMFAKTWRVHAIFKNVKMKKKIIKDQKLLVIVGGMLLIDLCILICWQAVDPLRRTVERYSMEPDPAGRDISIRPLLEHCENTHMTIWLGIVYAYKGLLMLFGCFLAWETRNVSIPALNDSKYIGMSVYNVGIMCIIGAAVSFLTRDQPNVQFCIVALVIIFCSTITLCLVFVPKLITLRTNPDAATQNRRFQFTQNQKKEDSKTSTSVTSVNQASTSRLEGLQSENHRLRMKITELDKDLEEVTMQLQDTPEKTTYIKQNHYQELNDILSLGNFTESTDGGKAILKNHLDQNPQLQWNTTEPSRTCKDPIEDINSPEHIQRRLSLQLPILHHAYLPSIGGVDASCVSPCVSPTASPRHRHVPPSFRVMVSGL
# [1] = molecular target: GABA-A receptor; anion channel; assay: Displacement of [3H]GABA from Gamma-aminobutyric acid A (GABA-A) receptor in rat brain membranes; format: cell membranes
Structure (SMILES),IC50 (Rattus norvegicus) [µM],IC50 (GABA B receptor) [µM],IC50 [1] [µM]
NCC1CC(=O)C=C(O)C1 (stereo not drawn),> 100,> 100,65
NCC(CC(=O)O)c1ccc(Cl)cc1 (stereo not drawn) [BACLOFEN],1.8,–,0.03
O=C(O)C1CCCNC1 (stereo not drawn) [NIPECOTIC ACID],5.6,> 100,> 100
